In series [1] the target is T1, PSMA (Homo sapiens, UniProt Q04609).
T1 construct: Detection of endogenous PSMA expression in LNCaP and PC3 cells relative to β-actin expression by Western; host or cells: LNCaP human prostate carcinoma cells (monolayer, spheroids or Potter-Elvehjem homogenates)
In words: Competition binding assay, LNCaP cell homogenates, radioligand [177Lu]Lu-PSMA-617. Particulars: nonlabeled compounds; [177Lu]Lu-PSMA-617 12 nM; 37 °C, 60 min; Table 2 mean (SEM), Table S3 individual experiments and mean. Here is the method: The binding affinity of the nonlabeled CHDT-PSMA-1/2/3, PSMA-1007, PSMA-617, and KuE was assessed in competition binding assays using LNCaP cell homogenates (∼1 × 10^6 cells/mL using Potter-Elvehjem) and the radioligand [^177Lu]Lu-PSMA-617 (n = 5 for CHDT-PSMA-1; n = 4 for CHDT-PSMA-2/3; n = 2 for PSMA-1007; n = 8 for PSMA-617; n = 6 for KuE). […] The assays were performed in a final volume of 200 μL. The incubation was stopped by washing the homogenate with cold PBS four times using a filter (Whatman GF/C, 90 min presoaked in 0.3% polyethylenimine) in a cell harvester (Brandel, USA). The radioactivity bound to the filter was measured in a gamma counter. Filter binding was determined for adjacent samples without cell homogenate. The experiments were performed two to four times in triplicates or quadruplicates. Inhibitory constants (Ki) were derived from nonlinear regression according to the model of “One site – Fit Ki” as implemented in GraphPad Prism 10. The Kd value of [^177Lu]Lu-PSMA-617 was determined in saturation binding assays using LNCaP cell homogenates to be 15.2 (±2.1) nM.

For series [2], the target named is T1, PSMA. In words: Saturation binding (surface-bound and internalized), intact LNCaP cells as monolayer. An excerpt:
(§1) In addition to assessing the binding affinities for nonlabeled CHDT-PSMA-1/2/3, we sought to characterize the saturation binding of the Al^18F-, ^68Ga-, and ^111In-labeled compounds using LNCaP cells cultured in monolayers and as spheroids. The saturation binding curves for Al[^18F]F-CHDT-PSMA-1/2/3 are depicted in Figure 3, while the graphs for [^18F]PSMA-1007 and ^68Ga- and ^111In-labeled CHDT-PSMA-1/2/3 can be found in Figures S7–S9 in the Supporting Information. The binding parameters (Kd and Bmax) for Al[^18F]F-CHDT-PSMA-1/2/3 and [^18F]PSMA-1007 are summarized in Table 3 (for the ^68Ga- and ^111In-labeled compounds see Tables S4 and S5 in the Supporting Information). For the saturation binding assays, we recorded surface-bound radioligand (named “binding”), which refers to bound radioligand that can be removed by acid wash, and internalized or acid-resistant radioligand (named “internalization”), which refers to radioligand that remains cell-bound after acid wash. Consequently, two saturation binding plots were obtained and two sets of binding parameters (Kd/Bmax and Kd,int/Bmax,int) were derived.
(§2) For saturation assays in well plates, monolayers of LNCaP (sowing 5 × 10^4 cells/well in 48-well plates 2 days before the assay), as well as LNCaP spheroids were incubated with radiolabeled CHDT-PSMA-1/2/3 and PSMA-1007 (0.2 nM to 100 nM) with adjacent samples receiving KuE (0.8 mM) at 37 °C for 2 h. The number of experiments can be derived from the data in the Tables S4, S5, and S7 in the Supporting Information. After removing the incubation medium and washing of cells with ice-cold PBS (containing Mg^2+ and Ca^2+) the surface-bound activity was stripped with 4 °C cold acid-wash buffer (0.2 M glycine, 0.15 M NaCl, pH 3.0) for 10 min. The acid wash buffer was transferred from the wells to measuring tubes, as was the PBS buffer after washing once. Cytosolic activity (internalized radioligand) was determined after treatment with cell lysis buffer (1% SDS in 0.1 M NaOH) at 37 °C for 30 min. Cell surface and cytosolic activity were measured separately in a gamma counter. Time-depending internalization assays were performed only with cells in monolayer. The incubation (radioligand concentration 13 nM) for these assays was terminated after 10 min, 1 and 3 h, with ^111In and ^177Lu additionally after 24 and 48 h at 37 °C, respectively. During the internalization assays adjacent samples received KuE (0.8 mM) for PSMA blocking, methyl-β-cyclodextrin (MβCD; 3 mM) or KuE together with MβCD, 1 h before radioligand application. The number of experiments can be derived from the data of Figure S11 and associated table and from Table S8 in the Supporting Information.
(§3) Dissociations constants (Kd and Kd,int), as well as maximal binding capacities (Bmax and Bmax,int), were derived from specific binding data by nonlinear regression according to the model of “One site-specific binding” as implemented in GraphPad Prism 10. Protein content was determined using the bicinchoninic acid protein assay kit (Pierce, Thermo Scientific) to calculate the binding capacities in pmol/mg and for the time-depending internalization the internalized percent of administrated dose per μg protein (% AD/μg protein).

Series [3] concerns the target T1, PSMA. As to the kind of experiment: Saturation binding (surface-bound and internalized), LNCaP spheroids.
From the text: as §1
For the formation of spheroids, the LNCaP cells were incubated overnight in a normal culture bottle with biocompatible nanoparticles ([…] with 80 μL of a suspension consisting of Au, Fe2O3 and poly-L-lysine called Nanoshuttle, Greiner Bio-One GmbH, Germany). After harvesting and cell counting, 10,000 cells/well of a 24-well plate or 7,000 cells/well of a 96-well plate (cell-repellent plates) were sown. The well plates were placed on matching plates with button magnets (Greiner Bio-One GmbH, Germany). The magnetized LNCaP cells formed suitable spheroids that were used after 5 d.
as §2, §3

In series [4] the target is T1, PSMA. In words: Time-depending internalization assay, LNCaP cells as monolayer. Format: cell-based. Particulars: individual experiments; for specific internalization in the presence of MβCD: MβCD 3 mM; for specific internalization: radioligand 13 nM. Here is the method:
as §2, §3

For another series, the system named is LNCaP tumor xenograft. As to the kind of experiment: Small animal PET imaging, LNCaP tumor xenograft mouse model. It is filed as in vivo, mice. The protocol: All animal experiments were performed in accordance with the German Animal Welfare regulations and were approved by the local ethics committee for animal experiments (DD24.1-51-31/449/49, Oct 26, 2018). A PSMA-positive prostate cancer xenograft model was generated by subcutaneous injection of human LNCaP cells into the right shoulder of 8–12 week-old male nude mice (Rj:NMRI-Foxn1^nu/nu, Janvier Laboratories, Le Genest-Saint-Isle, France). Imaging studies were performed when subcutaneous tumors reached a diameter of at least 6 mm. General anesthesia of the animals was induced and maintained by inhalation of 10% (v/v) desflurane in 30/70% (v/v) oxygen/air. Animals were continuously warmed at 37 °C during anesthesia.
Positron emission tomography (PET) was performed in vivo using the nanoScan PET/CT scanner (Mediso Medical Imaging Systems, Budapest, Hungary), especially suited for small animals. Each animal received 8–12 MBq of the reference compound [^18F]PSMA-1007 or the radioligands Al[^18F]F-CHDT-PSMA-1/2/3 in phosphate-buffered saline by intravenous injection via a tail vein catheter. At the time of injection, molar activities and radiochemical purities of the compounds were as follows: [^18F]PSMA-1007 (15 MBq/nmol, >99%); Al[^18F]F-CHDT-PSMA-1 (10 MBq/nmol, 99%); Al[^18F]F-CHDT-PSMA-2 (6.3 MBq/nmol, 98%); Al[^18F]F-CHDT-PSMA-3 (4.5 MBq/nmol, >99%). Specificity of target binding was assessed by blocking PSMA binding sites with 2-phosphonomethyl pentanedioic acid (2-PMPA), administered simultaneously with the radioligand at a dose of 50 mg/kg. With injection of the radioligand, emission of the annihilation photons was recorded continuously in coincidence mode of 1:5 for 120 min. A corresponding CT image was acquired with each PET scan and used for attenuation correction and anatomical referencing. From three-dimensional list mode data, events within the energy window of 400–600 keV were extracted and sorted into 36 time frames (f1–f36) with a sequence of 15 × 10 s, 5 × 30 s, 5 × 60 s, 4 × 300 s, 3 × 600 s, and 4 × 900 s. For each time frame, a PET image was reconstructed with the three-dimensional (3D) Tera-Tomo algorithm, with a voxel size of 0.4 mm, applying corrections for random events, scattering, attenuation, and decay.
Three-dimensional regions of interest (ROIs) were defined within an image series of selected time frames using fixed intensity thresholds for delineation of organs: bones at knee joint position (0–120 min, 55%), cardiac blood volume (0–1.7 min, 70%), gall bladder (0–120 min, 39%), intestine (0–120 min, 5%), kidneys (0–2.5 min, 15%), liver (0–2.5 min, 55%), muscle (0–120 min, 0%), parotid glands (0–120 min, 39%), tumor (0–120 min, 39%), and urinary bladder (0–120 min, 5%). Activity concentrations in tissue were determined as standardized uptake value (SUV = [MBq detected activity/mL tissue]/[MBq injected activity/g body weight]) and expressed as SUVmean (ROI-averaged). Time-activity curves were generated and analyzed using Prism (GraphPad Software, San Diego CA, USA). […] Areas under curves (AUC) were calculated using the trapezoid rule. Statistical significance of mean differences was tested by analysis of variance (ANOVA) using the Šidák test.

Setting [5] is: Al^18F-labeled conjugate or [18F]PSMA-1007, acid-resistant fraction, read-out: Kd,int (internalization).
Where [6] appears, read: Al^18F-labeled conjugate or [18F]PSMA-1007, surface-bound.
The mark [7] stands for this setting: SUVmean ratio 105–120 min after injection, mean ± SD.

Several values for one entry are separate records, joined by “and”; a condition that tells them apart may be missing. Equal entries are not always repeated.

T1 sequence (Q04609 whole entry): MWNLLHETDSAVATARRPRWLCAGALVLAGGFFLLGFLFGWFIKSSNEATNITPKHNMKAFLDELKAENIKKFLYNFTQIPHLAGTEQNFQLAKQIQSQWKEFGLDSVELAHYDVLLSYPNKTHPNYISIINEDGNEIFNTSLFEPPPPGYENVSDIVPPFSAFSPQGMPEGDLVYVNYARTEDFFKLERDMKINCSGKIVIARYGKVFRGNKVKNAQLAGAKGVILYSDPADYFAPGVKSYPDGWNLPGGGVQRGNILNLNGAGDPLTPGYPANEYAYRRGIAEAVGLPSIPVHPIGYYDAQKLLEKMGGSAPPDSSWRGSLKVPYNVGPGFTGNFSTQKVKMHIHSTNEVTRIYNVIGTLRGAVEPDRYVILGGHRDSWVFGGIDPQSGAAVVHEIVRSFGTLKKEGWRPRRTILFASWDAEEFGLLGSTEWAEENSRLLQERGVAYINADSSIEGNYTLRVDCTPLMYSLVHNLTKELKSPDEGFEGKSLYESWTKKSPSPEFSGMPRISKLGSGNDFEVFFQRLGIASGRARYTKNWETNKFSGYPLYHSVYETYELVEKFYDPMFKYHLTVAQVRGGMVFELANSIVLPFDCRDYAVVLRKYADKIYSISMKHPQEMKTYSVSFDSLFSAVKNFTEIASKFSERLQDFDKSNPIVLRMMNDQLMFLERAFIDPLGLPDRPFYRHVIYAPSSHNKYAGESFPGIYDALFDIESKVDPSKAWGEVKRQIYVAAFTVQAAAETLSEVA

Take `O=C(O)CC[C@H](NC(=O)N[C@@H](CCCCNC(=O)[C@H](Cc1ccc2ccccc2c1)NC(=O)[C@H]1CC[C@H](CNC(=O)CN2CCN(CC(=O)O)CCN(CC(=O)O)CCN(CC(=O)O)CC2)CC1)C(=O)O)C(=O)O` [PSMA-617]: the Ki on PSMA [1] is 4.1 nM and 2.59 nM and 5.55 nM and 5.49 nM and 4.57 nM and 3.33 nM and 4.02 nM and 3.71 nM and 4.2 nM.
`O=C(O)CC[C@H](NC(=O)N[C@@H](CCCCNC(=O)[C@H](Cc1ccc2ccccc2c1)NC(=O)c1ccc(CNC(=O)[C@H](CCC(=O)O)NC(=O)[C@H](CCC(=O)O)NC(=O)c2ccc(F)nc2)cc1)C(=O)O)C(=O)O` [[^18F]PSMA-1007]: at PSMA [2] (Al^18F-labeled conjugate or [18F]PSMA-1007, surface-bound, 37 °C, 2 h, read-out: Kd (binding)), the Kd is 5.4 nM.
For the molecule PSMA-1007 [reference compound], the Ki on PSMA [1] was 2 nM and 1.39 nM and 1.7 nM. The “Bmax,int (internalization)” value on PSMA [2] (Al^18F-labeled conjugate or [18F]PSMA-1007, acid-resistant fraction) is reported as 1.02 ± 0.21 pmol/mg. In addition, the Kd was found to be 10.1 ± 5.9 nM on PSMA [2] (setting [5]); 25.8 ± 18.6 nM at PSMA [3] (setting [5]); 12.9 ± 1.2 nM on PSMA [3] (Al^18F-labeled conjugate or [18F]PSMA-1007, surface-bound, read-out: Kd (binding)). Also, at PSMA [2] (setting [6]), the “Bmax (binding)” value stood at 1.11 ± 0.06 pmol/mg.
`O=C(O)CC[C@H](NC(=O)N[C@@H](CCCCNC(=O)[C@H](Cc1ccc2ccccc2c1)NC(=O)c1ccc(CNC(=O)[C@H](CCC(=O)O)NC(=O)[C@H](CCC(=O)O)NC(=O)c2ccc([18F])nc2)cc1)C(=O)O)C(=O)O` [[^18F]PSMA-1007]: on PSMA [4] (10 min), the “specific internalization in the presence of MβCD” value was 0.02232 % AD/µg protein and 0.008008 % AD/µg protein; the specific internalization was 0.03696 % AD/µg protein and 0.02616 % AD/µg protein. In addition, at PSMA [4] (1 h), the “specific internalization in the presence of MβCD” value is 0.1091 % AD/µg protein and 0.02833 % AD/µg protein and 0.1038 % AD/µg protein; the specific internalization is 0.07765 % AD/µg protein and 0.1071 % AD/µg protein and 0.1171 % AD/µg protein. At PSMA [4] (3 h), the “specific internalization in the presence of MβCD” value was 0.04566 % AD/µg protein and 0.1478 % AD/µg protein and 0.1495 % AD/µg protein; the specific internalization was 0.2295 % AD/µg protein and 0.1701 % AD/µg protein and 0.1562 % AD/µg protein. Moreover, the “Bmax (binding)” value at PSMA [2] (setting [6]) is recorded as 1.11 pmol/mg. In addition, the “average SUVmean in bone tissue” value in the series with LNCaP tumor xenograft (120 min p.i.) is given as 0.21. For the same molecule, in the series on LNCaP tumor xenograft (setting [7]), the Tu/Blood is reported as 14 ± 3.0, the Tu/Bone is reported as 18 ± 7.9, the Tu/Kidney came out at 0.5 ± 0.2 and the Tu/Liver stood at 16 ± 6.8. Besides, the Tu/Muscle with LNCaP tumor xenograft (setting [7]) is 20 ± 6.9.

Source of the values: publication PMC11417994, “Cyclohexanediamine Triazole (CHDT) Functionalization Enables Labeling of Target Molecules with Al^18F/^68Ga/^111In” (Bioconjugate Chemistry, 2024).
